Data: publication PMC10644342, “Improved Antibacterial Activity of 1,3,4-Oxadiazole-Based Compounds That Restrict Staphylococcus aureus Growth Independent of LtaS Function” (ACS Infectious Diseases, 2023)
In brackets after ≈: the same amount, converted by molar mass. Where two headings read alike, the source gives them in different places.

How the values were obtained:
[1] = system: S. epidermidis strain RP62A; test: Biofilm prevention, crystal violet assay; format: cell-based, Staphylococcus epidermidis
Procedure: (§1) An indication of the biofilm prevention capabilities of 1771 and its derivatives 9–14 was achieved through the application of the crystal violet assay. S. aureus strain SH1000 and S. epidermidis strain RP62A were used, as they are strong biofilm formers. Overnight cultures were diluted 1:200 in fresh TSB containing 0.5% glucose (TSB-G), and 100 μL was added to individual wells in a 96-well microtiter plate. One hundred microliters of 1771 and 9–14 were diluted in TSB-G and added to bacteria at a final concentration ranging from 256 to 0.25 μg/mL with subsequent incubation for 24 h at 37 °C in a static incubator. Following incubation, biofilms were washed four times with ddH2O before being stained with 150 μL of 0.1% crystal violet for 30 min at room temperature. Following a further four washes in ddH2O, wells were resuspended in 200 μL of 7% acetic acid. The absorbance intensity of the crystal violet was measured at abs595nm in a Sunrise plate reader. Biomass formed was measured as a percentage of the no-compound control.

S. aureus = test: MIC, broth microdilution (CLSI); format: cell-based, Staphylococcus aureus; conditions: for MIC: Staphylococcus aureus, read-out: minimum inhibitory concentration
Procedure: (§2) S. aureus, S. epidermidis, E. faecalis, and E. faecium strains were routinely cultivated on tryptic soy agar (TSA) and grown for 18 h at 37 °C. S. aureus single colonies were subsequently transferred into 2 mL of tryptic soy broth (TSB) and grown for a further 18 h at 37 °C while being shaken at 180 rpm. S. pyogenes, S. agalactiae, and S. dysgalactiae strains were routinely cultured on TSA supplemented with 5% sheep blood and grown for 18 h at 37 °C with 5% CO2. E. coli was grown in LB broth at 37 °C. For LtaS-deficient strains, TSB was supplemented with 0.5 M NaCl to provide an osmotically balanced environment and instead grown at 30 °C. For strains harboring the pRMC2 tetracycline inducible vector,[61] the growth medium was supplemented with 10 μg/mL chloramphenicol and […] anhydrotetracycline hydrochloride (Sigma). Phenylalanine-arginine β-naphthylamide (PAβN) (Sigma) was dissolved in sterile water.
(§3) B. subtilis, staphylococcal, and enterococcal strains were grown in Mueller Hinton broth (MHB), while streptococcal strains were grown in MHB supplemented with 5% laked horse blood. All strains were grown for 18 h at 37 °C. The overnight cultures were subsequently subcultured 1:200 and grown to the exponential phase (OD600nm = 0.5–0.6) in fresh broth. 1771 and its derivatives 9–14 were reconstituted in DMSO and further diluted by performing a 1:2 serial dilution ranging between 256 and 0.125 μg/mL in a 96-well microtiter plate. One hundred microliters of 0.5 McFarland standardized inoculum (approximately equal to 5 × 10^5 cfu) were then dispensed into each well in the 96-well microtiter plate. The plate was incubated for 18 h at 37 °C.

S. epidermidis = test: MIC, broth microdilution (CLSI); format: cell-based, Staphylococcus epidermidis; conditions: Staphylococcus epidermidis, read-out: minimum inhibitory concentration
Procedure: as §2, §3

S. aureus strain SH1000 = test: Biofilm prevention, crystal violet assay; format: cell-based, Staphylococcus aureus; conditions: for biofilm prevention compared with 1771: SH1000
Procedure: as §1

LTA = LTA quantification by Western blot; format: cell-based, Staphylococcus aureus; conditions: strain LAC, 1× and 4× the MIC
Procedure: Overnight cultures of S. aureus strains were diluted 1:200 in fresh TSB and grown to an optical density of OD600nm 0.3. […] Vancomycin and daptomycin at 1× and 4× MIC were also included as control antibiotics. Cells were then normalized to have 10 mL of OD600nm 0.6, pelleted at 4000 rpm, and resuspended in 300 μL of PBS containing 200 μg/mL lysostaphin. This suspension was then incubated at 37 °C for 45 min to allow digestion of the cell wall to occur. One hundred microlitres of 4× SDS sample buffer were then added, and the mixture was boiled at 95 °C for 20 min. The insoluble material was then removed by pelleting at 16,000 rpm for 10 min. The supernatant containing LTA was then subjected to SDS-PAGE on a 4–20% Tris-glycine gel (Bio-Rad). The gel was transferred onto a PVDF membrane using a Trans-Blot Turbo Transfer System (Bio-Rad). The membrane was blocked overnight in TBST containing 5% semi-skimmed milk before being incubated with a mouse anti-LTA antibody (Hycult; HM2048; 1:2000 dilution) followed by a goat antimouse-HRP secondary antibody (Proteintech; SA00001; 1:2000 dilution) before being visualized using an Amersham-ECL kit (Cytiva).

Compound	MIC (S. aureus; NEWMAN, strain Newman)	MIC (S. aureus; strain EMRSA-15)	MIC (S. aureus; strain LAC)	MIC (S. aureus; strain MRSA252)	MIC (S. aureus; strain MW2)	MIC (S. aureus; strain Mu3)	MIC (S. aureus; strain Mu50)	MIC (S. aureus; strain SH1000)	MIC (S. aureus; strain TW20)	MIC (S. epidermidis; strain 305)	MIC (S. epidermidis; strain 311)	MIC (S. epidermidis; strain 319)	MIC (S. epidermidis; strain 322)	MIC (S. epidermidis; strain 771)	MIC (S. epidermidis; strain 780)	MIC (S. epidermidis; strain RP62A)	LTA signal by Western blot (LTA)	biofilm prevention compared with 1771 [1]	biofilm prevention compared with 1771 (S. aureus strain SH1000)	also measured
O=C(COC(=O)Cc1coc2ccc3ccccc3c12)Nc1nnc(-c2cccc(Cl)c2)o1 [Compound 10, 2-((5-(3-Chlorophenyl)-1,3,4-oxadiazol-2-yl)amino)-2-oxoethyl 2-(Naphtho[2,1-b]furan-1-yl)acetate]	64 µg/mL (≈ 139 µM)	32 to 64 µg/mL (≈ 69.3 to 139 µM)	64 µg/mL (≈ 139 µM)	64 µg/mL (≈ 139 µM)	64 µg/mL (≈ 139 µM)	64 µg/mL (≈ 139 µM)	64 µg/mL (≈ 139 µM)	64 µg/mL (≈ 139 µM)	64 µg/mL (≈ 139 µM)	32 to 64 µg/mL (≈ 69.3 to 139 µM)	32 to 64 µg/mL (≈ 69.3 to 139 µM)	64 µg/mL (≈ 139 µM)	64 µg/mL (≈ 139 µM)	32 to 64 µg/mL (≈ 69.3 to 139 µM)	32 to 64 µg/mL (≈ 69.3 to 139 µM)	64 µg/mL (≈ 139 µM)				concentration causing a 50% reduction in biofilm formation ([1]; 24 h): 16 to 64 µg/mL; fold increase in the MIC when compared to 1771 (S. aureus; S. aureus and S. epidermidis strains): 4- to 16 fold; concentration causing a 50% reduction in biofilm formation (S. aureus strain SH1000; SH1000, 24 h): 32 to 64 µg/mL
Cc1c(N)cccc1Cn1ccc(OCCc2cccs2)cc1=O [nilofabicin]																	substantial decrease in LTA production			
O=C(COC(=O)Cc1coc2ccc3ccccc3c12)Nc1nnc(-c2ccc(F)cc2)o1 [Compound 12, 2-((5-(4-Fluorophenyl)-1,3,4-oxadiazol-2-yl)amino)-2-oxoethyl 2-(Naphtho[2,1-b]furan-1-yl)acetate]	8 µg/mL (≈ 18 µM)	8 µg/mL (≈ 18 µM)	8 µg/mL (≈ 18 µM)	16 µg/mL (≈ 35.9 µM)	8 µg/mL (≈ 18 µM)	8 µg/mL (≈ 18 µM)	4 to 8 µg/mL (≈ 8.98 to 18 µM)	8 µg/mL (≈ 18 µM)	8 µg/mL (≈ 18 µM)	8 µg/mL (≈ 18 µM)	4 to 8 µg/mL (≈ 8.98 to 18 µM)	4 to 8 µg/mL (≈ 8.98 to 18 µM)	8 µg/mL (≈ 18 µM)	4 to 8 µg/mL (≈ 8.98 to 18 µM)	4 to 8 µg/mL (≈ 8.98 to 18 µM)	4 to 8 µg/mL (≈ 8.98 to 18 µM)		better	worse than 1771	
COc1ccc2c(ccc3occ(CC(=O)OCC(=O)Nc4nnc(-c5cccc(Cl)c5)o4)c32)c1 [Compound 11, 2-((5-(3-Chlorophenyl)-1,3,4-oxadiazol-2-yl)amino)-2-oxoethyl 2-(7-Methoxynaphtho[2,1-b]furan-1-yl)acetate]	2 µg/mL (≈ 4.07 µM)	2 µg/mL (≈ 4.07 µM)	4 µg/mL (≈ 8.13 µM)	4 µg/mL (≈ 8.13 µM)	2 µg/mL (≈ 4.07 µM)	2 µg/mL (≈ 4.07 µM)	2 µg/mL (≈ 4.07 µM)	2 µg/mL (≈ 4.07 µM)	2 µg/mL (≈ 4.07 µM)	2 to 4 µg/mL (≈ 4.07 to 8.13 µM)	2 µg/mL (≈ 4.07 µM)	2 µg/mL (≈ 4.07 µM)	4 µg/mL (≈ 8.13 µM)	2 µg/mL (≈ 4.07 µM)	4 µg/mL (≈ 8.13 µM)	2 to 4 µg/mL (≈ 4.07 to 8.13 µM)		better than 1771	better than 1771	
CCCCCCCCCC(=O)N[C@@H](Cc1c[nH]c2ccccc12)C(=O)N[C@H](CC(N)=O)C(=O)N[C@@H](CC(=O)O)C(=O)N[C@@H]1C(=O)NCC(=O)N[C@@H](CCCN)C(=O)N[C@@H](CC(=O)O)C(=O)N[C@H](C)C(=O)N[C@@H](CC(=O)O)C(=O)NCC(=O)N[C@H](CO)C(=O)N[C@@H]([C@H](C)CC(=O)O)C(=O)N[C@@H](CC(=O)c2ccccc2N)C(=O)O[C@@H]1C [daptomycin]																	No reduction in LTA			
